IC50 and KD data for 3 compounds are collected here from paper doi:10.1101/662718v1 (biorxiv, 2019).

The target of experiment [1] is T1, ecATCase (Escherichia coli, UniProt P0A786).
T1 sequence (P0A786 2-311): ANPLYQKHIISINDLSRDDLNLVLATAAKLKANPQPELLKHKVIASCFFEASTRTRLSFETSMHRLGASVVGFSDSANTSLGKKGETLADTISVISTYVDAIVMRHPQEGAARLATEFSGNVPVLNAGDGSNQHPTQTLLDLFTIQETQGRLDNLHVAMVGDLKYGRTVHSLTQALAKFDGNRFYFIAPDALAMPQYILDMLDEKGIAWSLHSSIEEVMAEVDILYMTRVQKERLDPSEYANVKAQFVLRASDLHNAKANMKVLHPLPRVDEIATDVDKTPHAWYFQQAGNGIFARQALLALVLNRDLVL
Description: colorimetric ATCase activity assay, dose-response fit. The experiment is classed as biochemical.

In experiment [2] the target is T2, huATCase (Homo sapiens, UniProt P27708).
T2 sequence (P27708 1915-2225 limits assumed): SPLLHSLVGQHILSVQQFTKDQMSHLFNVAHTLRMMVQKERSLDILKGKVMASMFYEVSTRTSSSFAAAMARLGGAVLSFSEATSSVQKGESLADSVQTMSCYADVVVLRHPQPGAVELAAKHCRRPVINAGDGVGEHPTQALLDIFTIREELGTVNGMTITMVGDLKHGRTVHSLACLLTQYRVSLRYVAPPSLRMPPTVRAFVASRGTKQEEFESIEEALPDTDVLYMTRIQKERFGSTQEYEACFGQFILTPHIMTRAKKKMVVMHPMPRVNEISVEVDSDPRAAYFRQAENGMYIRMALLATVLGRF
The description is as above. In kind it is biochemical.

In experiment [3] the target is T1, ecATCase. The experiment is described as follows: ITC. In kind it is binding. The following applies: 50 mM Tris-acetate pH 8.3, no Asp.

As usually defined, the IC50 is the concentration that inhibits the measured activity by half. Consider `CC(C(=O)Oc1ccc(C2C3=C(Nc4[nH]c(=O)n(C)c(=O)c42)c2ccccc2C3=O)cc1)N1C(=O)c2ccccc2C1=O` (centres unmarked) [YD21], for which the results for the half-maximal inhibitory concentration (IC50) in experiment [1] and in experiment [2] were 5 ± 1.4 µM and 15.4 ± 1.6 µM, respectively.

On to `O=c1[nH]c2ccc(Nc3nc4nonc4nc3N/N=C/c3ccccc3OCc3ccc(Cl)cc3Cl)cc2[nH]1` [YD19], for which the IC50 in experiment [1] came to 1.8 ± 0.4 µM; in experiment [2], 4.1 ± 1.9 µM.

`NC(=O)OP(=O)(O)O` [CP]: the KD result in experiment [3] was “all ATCase variants were able to bind CP”.
